The values below are quoted from earlier work in patent publication US20140356423A1, “FORMULATIONS OF LYCOPENE IN COMBINATION WITH BISPHOSPHONATES BONE RESORPTION INHIBITORS” (priority 2013, published 2014).

The conditions of data set [1]: taken either concurrently with or 2 hours after breakfast.
For data set [2] the following is noted: tablet not taken with enough water, or patient not upright for approximately one-half hour after taking.
In data set [3] the test system is osteoblast-like SaOS-2 cells.
In data set [4] the test system is alkaline phosphatase activity.

The structures appear in SMILES notation. Read-outs that look alike come from different tables or passages of the source. Some results are limits rather than exact numbers.

Consider `NCCCC(O)(P(=O)(O)O)P(=O)(O)O` [alendronate, 4-amino-1-hydroxybutylidene-1,1-biphosphonic acid], for which the impairment of availability in data set [1] is given as above 85%. Moreover, the side effects result in data set [2] was “esophageal irritation and erosion”.

For `CC(C)=CCC/C(C)=C/C=C/C(C)=C/C=C/C(C)=C/C=C/C=C(C)/C=C/C=C(C)/C=C/C=C(\C)CCC=C(C)C` [lycopene], the “proliferation of osteoblast-like SaOS-2 cells” value in data set [3] was “stimulated the proliferation”. Also, the alkaline phosphatase activity entry in data set [4] (more mature cells grown in the presence of dexamethasone (SaOS+Dex cells)) is recorded as “stimulate alkaline phosphatase activity”; in data set [4] (younger cells grown in the absence of dexamethasone (SaOS-Dex cells), depending on the time of addition), “inhibited or had no effect”.
